Columns and labels:
Assay type in all cases: cell-based, human
PPARγ = test: Western blot of PPARγ expression in P. acnes-stimulated HaCaT cells; settings: 25 μM, 24 h pre-treatment
Method: (§1) Western Blot analysis. Whole cell protein extracts (25 μg) were separated by electrophoresis (LDS-PAGE) under denaturing conditions with NuPAGE Novex 4-12% Bis-Tris gel (1 mm, 12 wells, Invitrogen, UK) and proteins were transferred onto nitrocellulose membranes and saturated in 20 ml of saturation buffer consisting of TBS 1× (Tris Buffered Saline) containing 200 mM Tris, 1.4 M NaCl (pH 7.6), 5% no fat milk, 0.1% Tween 20 for 1 h. […] After washing to remove unbound antibodies, bound primary antibodies were detected by incubation for 1 h using secondary antibody against rabbit- and mouse IgG (Santa Cruz Biotechnology, SC-2357, 1:5000 and SC-2005, 1:5000, respectively). Unbound material was removed by washing and peroxidase activity was detected in a chemiluminescence assay (WesternBright ECL, Advansta, Menlo Park, USA). […]

JNK = test: Western blot of p-JNK/JNK in P. acnes-stimulated HaCaT cells; settings: 25 μM, 24 h pre-treatment
Method: as §1

IL-8 production [1] = test: IL-8 production by M5-stimulated NHDK, in vitro psoriasis-like model (ELISA); settings: NHDK + M5, 48 h
Method: Cell culture, pretreatment and stimulation.
(§2) ELISA. Human IL-1β, IL-8, hBD-2 and TNF-α protein concentration were measured in the supernatants of stimulated cells using various ELISA Sets (all from Ready-Set-Go from eBioscience, except hBD-2 measurements: Human DEFB4A/BD-2 ELISA Kit from LSBio) according to the manufacturer's instructions. We used serial dilutions of recombinant human IL-1β, IL-8, hBD-2 and TNF-α for standard curve. The optical density was determined at 450 nm at a wavelength correction of 540 nm.

ICAM-1 = test: Western blot of ICAM-1 expression in P. acnes-stimulated HaCaT cells; settings: 25 μM, 24 h pre-treatment
Method: as §1

mTOR = test: Western blot of p-mTOR/mTOR in P. acnes-stimulated HaCaT cells; settings: 25 μM, 24 h pre-treatment
Method: as §1

IL-8 production [2] = test: PGN-induced IL-8 production in HaCaT keratinocytes (ELISA); settings: 6.25 μM, 24 h pre-treatment, PGN 5, 10, 20 μg/ml for 18 h
Method: as §2
Previously it has been shown that diclazuril and meclozine were able to inhibit IL-8 and IL-1β productions at the transcriptional and […] levels in pretreated cells stimulated with P. acnes. Here, it is investigated if the nature of the cell stimuli would have an impact on the diclazuril and meclozine effects on the IL-8 and IL-1β productions. Both, HaCaT and ThP-1 cell lines were pretreated with several concentrations of diclazuril and meclozine ranging from 0.39 to 25 μM for 24 h, and then stimulated with 3 different concentrations of peptidoglycanne (PGN) and lipoteicoic acid (LTA) at 5, 10 and 20 μg/ml for 18 h at 37° C. […] Pretreatment of keratinocytes with diclazuril decreased the production of IL-8 by an average of 65% at 6.25 μM regardless of the initial PGN dose used (FIG. 5A). Same results were obtained with meclozine and at 6.25 μM the IL-8 production was reduced by 60% (FIG. 5B).

Row | SMILES | expression of PPARγ (PPARγ) | phosphorylation of JNK induced by P. acnes (JNK) | IC50 (IL-8 production [1]; Homo sapiens, read-out: IC50 of decrease of IL-8 production) [µM] | decrease of IL-8 production (IL-8 production [1]; at 3,125 μM) [%] | P. acnes-induced ICAM-1 expression (ICAM-1) | phosphorylation of mTOR induced by P. acnes (mTOR) | decrease of PGN-induced IL-8 production (IL-8 production [2]) [%] | effect on IL-8 production, in words (IL-8 production [1]; 0.39 to 12.5 μM)
1 | N#CC(c1ccc(Cl)cc1)c1c(Cl)cc(-n2ncc(=O)[nH]c2=O)cc1Cl (stereo not drawn) [diclazuril, Diclazuril] | no change | did not cause any changed | 2 to 3 | 66 | no effect | did not cause any changed | 65 | 
2 | Cc1cccc(CN2CCN(C(c3ccccc3)c3ccc(Cl)cc3)CC2)c1 (stereo not drawn) [meclozine, Meclozine] |  | did not cause any changed |  |  | decreased its expression | did not cause any changed | 60 | no effect
